The source made the active and inactive calls. The calls are words filed in the database; no cut-off is given here.

This experiment relates to iNKT. In words: Antigenic activity in mouse iNKT cells co-cultured with N38-2C12 cells assessed as potentiation of glycolipid loaded bone marrow dendritic cells-induced IL-2 secretion by ELISA. In kind it is functional, cell-based. (In general: ELISA stands for enzyme-linked immunosorbent assay.)
With `CCCCCCCCCCCCCCCCCCCCCCCCCC(=O)N[C@@H](CO[C@H]1O[C@H](Cn2cc(CCCc3ccccc3)nn2)[C@H](O)[C@H](O)[C@H]1O)[C@H](O)[C@H](O)CCCCCCCCCCCCCC`, the outcome was Active.

With `CCCCCCCCCCCCCCCCCCCCCCCCCC(=O)N[C@@H](CO[C@H]1O[C@H](Cn2cc(Cc3ccccc3)nn2)[C@H](O)[C@H](O)[C@H]1O)[C@H](O)[C@H](O)CCCCCCCCCCCCCC`, the outcome was Active.

Take `CCCCCCCCCCCCCCCCCCCCCCCCCC(=O)N[C@@H](CO[C@H]1O[C@H](Cn2cc(CCc3ccccc3)nn2)[C@H](O)[C@H](O)[C@H]1O)[C@H](O)[C@H](O)CCCCCCCCCCCCCC`: the outcome was Active.

`CCCCCCCCCCCCCCCCCCCCCCCCCC(=O)N[C@@H](CO[C@H]1O[C@H](Cn2ccnn2)[C@H](O)[C@H](O)[C@H]1O)[C@H](O)[C@H](O)CCCCCCCCCCCCCC`: the outcome was Active.

As to `CCCCCCCCCCCCCCCCCCCCCCCCCC(=O)N[C@@H](CO[C@H]1O[C@H](Cn2cc(-c3ccccc3)nn2)[C@H](O)[C@H](O)[C@H]1O)[C@H](O)[C@H](O)CCCCCCCCCCCCCC`, the result was Active.

For the molecule `CCCCCCCCCCCCCCCCCCCCCCCCCC(=O)N[C@@H](CO[C@H]1O[C@H](Cn2cc(CCCC)nn2)[C@H](O)[C@H](O)[C@H]1O)[C@H](O)[C@H](O)CCCCCCCCCCCCCC`, the outcome was Active.

Source of the values: ChEMBL document CHEMBL2203024, “Synthesis of 6"-triazole-substituted α-GalCer analogues as potent iNKT cell stimulating ligands” (Bioorg Med Chem, 2012).
